Experimental data published in patent US20090029992A1, “SUBSTITUTED PYRAZOLE COMPOUNDS” (priority 2007, published 2009).

How the values were obtained:
Assay type in all cases: biochemical
[1] = molecular target: T1, N-terminal GST-tagged recombinant human Flt3, residues 564-end (Homo sapiens, UniProt P36888); experiment: Flt3 kinase inhibition assay (33P-ATP filter assay); conditions: 40 minutes at room temperature
T1 construct: recombinant human Flt3, residues 564-end; GST (N); purchased Upstate USA Inc, 706 Forest Street, Charlottesville, Va
T1 sequence (P36888 564-993 limits assumed): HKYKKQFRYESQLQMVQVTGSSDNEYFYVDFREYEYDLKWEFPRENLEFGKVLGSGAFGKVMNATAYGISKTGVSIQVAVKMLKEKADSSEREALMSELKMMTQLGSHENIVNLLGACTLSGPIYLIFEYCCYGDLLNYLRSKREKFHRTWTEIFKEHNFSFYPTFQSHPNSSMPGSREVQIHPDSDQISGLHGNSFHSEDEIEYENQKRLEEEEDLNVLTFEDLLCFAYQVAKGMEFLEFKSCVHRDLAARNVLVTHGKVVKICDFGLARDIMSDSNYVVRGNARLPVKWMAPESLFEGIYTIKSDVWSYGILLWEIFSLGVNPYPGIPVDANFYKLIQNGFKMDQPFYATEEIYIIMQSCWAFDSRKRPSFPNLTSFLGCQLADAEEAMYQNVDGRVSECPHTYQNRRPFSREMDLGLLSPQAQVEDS
Method in brief: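 Serial compound dilutions incubated 40 min at room temperature with 5-10 mU Flt3 kinase, 50 μM peptide substrate and [γ-33P]ATP/10 mM magnesium acetate, pH 7.0. Phosphoric acid stop, filter capture and scintillation counting; activity compared with uninhibited reactions.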

[2] = molecular target: T2, N-terminal His-tagged human Src (Homo sapiens, UniProt P12931); experiment: Src kinase inhibition assay (33P-ATP filter assay)
T2 construct: His (N); purchased Upstate USA Inc, 706 Forest Street, Charlottesville, Va

[3] = molecular target: T3, N-terminal His6-tagged recombinant human KDR, residues 790-end (Homo sapiens, UniProt P35968); experiment: KDR kinase inhibition assay (33P-ATP filter assay)
T3 construct: recombinant human KDR, residues 790-end; His6 (N); purchased Upstate USA Inc, 706 Forest Street, Charlottesville, Va
Method in brief: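 His6-tagged human KDR (residues 790-end, 5-10 mU) with 0.33 mg/mL myelin basic protein in 8 mM MOPS pH 7.0, 0.2 mM EDTA, 10 mM magnesium acetate and [γ-33P]ATP; 40 min at room temperature. Stopped with phosphoric acid, filter-bound 33P counted; inhibition relative to no-inhibitor controls.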

[4] = group with IC50 greater than 100 nM

T3 sequence (P35968 790-1356 limits assumed): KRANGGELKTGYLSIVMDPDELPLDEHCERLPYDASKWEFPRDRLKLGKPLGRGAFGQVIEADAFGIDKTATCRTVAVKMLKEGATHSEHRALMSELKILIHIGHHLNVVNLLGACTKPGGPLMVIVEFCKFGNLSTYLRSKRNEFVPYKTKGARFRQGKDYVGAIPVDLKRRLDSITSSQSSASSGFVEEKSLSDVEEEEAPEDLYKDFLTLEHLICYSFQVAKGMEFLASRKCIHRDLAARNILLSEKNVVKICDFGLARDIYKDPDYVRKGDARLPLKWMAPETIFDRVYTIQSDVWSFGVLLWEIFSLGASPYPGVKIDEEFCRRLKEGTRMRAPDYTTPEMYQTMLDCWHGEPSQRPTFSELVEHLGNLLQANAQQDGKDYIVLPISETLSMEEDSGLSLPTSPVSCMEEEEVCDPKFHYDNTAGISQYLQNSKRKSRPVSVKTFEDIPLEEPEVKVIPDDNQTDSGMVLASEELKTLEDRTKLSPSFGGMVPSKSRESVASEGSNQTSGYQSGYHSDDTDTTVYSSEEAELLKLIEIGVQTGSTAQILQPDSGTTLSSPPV
T2 sequence (P12931 whole entry): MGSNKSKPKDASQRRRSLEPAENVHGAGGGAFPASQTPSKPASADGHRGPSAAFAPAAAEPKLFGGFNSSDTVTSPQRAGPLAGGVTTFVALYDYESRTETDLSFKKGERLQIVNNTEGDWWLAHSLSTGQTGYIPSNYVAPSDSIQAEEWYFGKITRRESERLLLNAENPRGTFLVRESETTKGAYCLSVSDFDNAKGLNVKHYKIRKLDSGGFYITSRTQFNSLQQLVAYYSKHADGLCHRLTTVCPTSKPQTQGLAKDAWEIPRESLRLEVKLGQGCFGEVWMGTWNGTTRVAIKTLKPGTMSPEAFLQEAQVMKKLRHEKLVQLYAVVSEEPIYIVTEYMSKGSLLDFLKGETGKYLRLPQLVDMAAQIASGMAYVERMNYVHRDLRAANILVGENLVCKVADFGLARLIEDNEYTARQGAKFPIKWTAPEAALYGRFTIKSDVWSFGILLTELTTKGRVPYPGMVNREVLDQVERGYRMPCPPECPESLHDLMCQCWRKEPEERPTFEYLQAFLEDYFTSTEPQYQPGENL

IC50 [1] [nM]	IC50 [2, 4] [nM]	IC50 [3, 4] [nM]	IC50 ([2]; 40 minutes at room temperature) [nM]	IC50 ([3]; 40 minutes at room temperature) [nM]	SMILES
≤ 100	≤ 1000	≤ 1000	–	–	Cc1ccc(C)c(-c2nc(Nc3cc(C)[nH]n3)cc(N3CCN(C)CC3)n2)c1 [Example 201, 2-(2,5-dimethylphenyl)-N-(5-methyl-1H-pyrazol-3-yl)-6-(4-methylpiperazin-1-yl)pyrimidin-4-amine]
≤ 100	–	–	≤ 100	≤ 100	Cc1cc(Nc2cc(N3CCN(C)CC3)nc(-c3cccc4ccoc34)n2)n[nH]1 [Example 203, 2-(benzofuran-7-yl)-N-(5-methyl-1H-pyrazol-3-yl)-6-(4-methylpiperazin-1-yl)pyrimidin-4-amine]
≤ 100	≤ 1000	≤ 1000	–	–	Cc1cc(Nc2cc(NC3CCOCC3)nc(-c3cccc4ccoc34)n2)n[nH]1 [Example 204, 2-(benzofuran-7-yl)-N^4-(5-methyl-1H-pyrazol-3-yl)-N^6-(tetrahydro-2H-pyran-4-yl)pyrimidine-4,6-diamine]
≤ 100	≤ 1000	≤ 1000	–	–	Cc1cc(Nc2cc(N(C)CCN(C)C)nc(-c3cccc4ccoc34)n2)n[nH]1 [Example 205, 2-(benzofuran-7-yl)-N^4-(2-(dimethylamino)ethyl)-N^4-methyl-N^6-(5-methyl-1H-pyrazol-3-yl)pyrimidine-4,6-diamine]
